The source of these data is patent US20260374766A1, “METHODS FOR TREATING CANCER” (Antares Therapeutics, Inc., priority 2022, published 2026).

By Kd is commonly meant the equilibrium constant for the complex coming apart. One may read the AC50 as the concentration at which the activity in the assay is half-maximal. By Emax is commonly meant the greatest response seen or fitted, relative to the assay's reference. In general, IC50 refers to the concentration that gives 50% inhibition.

Molecules are shown by their SMILES. Like-named read-outs stand apart in the source and are kept apart here.

Test [1] deals with T1, p53 Y220C mutant protein (amino acid residues 94-293) (Homo sapiens, UniProt P04637, Y220C).
T1 construct: p53 Y220C mutant protein (amino acid residues 94-293)
T1 sequence (P04637 94-293, stated change not applied): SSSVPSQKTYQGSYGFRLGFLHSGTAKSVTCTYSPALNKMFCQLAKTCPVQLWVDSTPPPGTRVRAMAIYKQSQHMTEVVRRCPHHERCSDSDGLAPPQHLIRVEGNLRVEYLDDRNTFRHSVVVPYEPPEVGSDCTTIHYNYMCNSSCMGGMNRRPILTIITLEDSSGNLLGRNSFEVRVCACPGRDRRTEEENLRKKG
Briefly: Surface Plasmon Resonance (SPR) assay, Kd_kinetic. In kind it is binding. The note with it: SPR, p53 Y220C, read-out: SPR P53 Y220C KD kinetic. In outline:
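Binding measured by SPR on a Biacore 8K in running buffer of 50 mM Tris pH 7.5, 100 mM NaCl, 1 mM DTT, 0.01% Brij35, 0.05% Tween-20, 1% DMSO.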

Test [2] concerns the target p53 Y220C (Homo sapiens, UniProt P04637, Y220C). Briefly: Luciferase Reporter Assay (Luc), p53 response element, NClH1299 cells with inducible p53 Y220C. The format is cell-based. The note with it: 6 hour; for AC50: read-out: Luc P53 Y220C AC50. In outline:
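24 h dox pre-induction (0.5 ug/mL), then 6 h compound; One-Glo luminescent read.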

In test [3] the test system is NUGC3 p53 Y220C. As to the kind of experiment: Cell Proliferation Assay (CellTiter-Glo, CTG), NUGC3 p53 Y220C. In kind it is cell-based. As to conditions: Homo sapiens, NUGC-3, 120 h, 5 days. In outline: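 NClH1299 lines stably transduced with Tet-inducible p53 Y220C or R273H, plus NUGC3, were treated with compound for 5 days at 250-500 cells/well. IC50 derived from CellTiter-Glo luminescent signal after 10 min room-temperature incubation.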
In general terms: ATP-based viability assays read luminescence as a measure of living cells.

For test [4], the system named is H1299 p53 Y220C. Briefly: Cell Proliferation Assay (CellTiter-Glo, CTG), H1299 p53 Y220C (NClH1299-inducible p53 Y220C). The format is cell-based. As to conditions: Homo sapiens, NCI-H1299, 120 h, 5 days. The gist of the method: (§1)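 Cells seeded at 250-500 per well and exposed to compound for 5 days. Viability read by CellTiter-Glo luminescence after 10 min at room temperature; IC50 calculated. H1299 lines carry Tet-One inducible p53 mutant constructs introduced by lentiviral transduction.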

The subject of test [5] is H1299 p53 R273H. As to the kind of experiment: Cell Proliferation Assay (CellTiter-Glo, CTG), H1299 p53 R273H (NClH1299-inducible p53 R273H). As to conditions: Homo sapiens, NCI-H1299, 120 h, 5 days. In kind it is cell-based. The gist of the method: as §1
Where [6] appears, read: AC50, luciferase reporter, NClH1299 inducible p53 Y220C.
Setting [7] is: Emax, luciferase reporter, NClH1299 inducible p53 Y220C.
Where [8] appears, read: NClH1299-inducible p53 Y220C cells, CellTiter-Glo.
Where [9] appears, read: NClH1299-inducible p53 R273H cells, CellTiter-Glo.
The mark [10] stands for this setting: AC50, NClH1299 cells with inducible p53 Y220C.
The mark [11] stands for this setting: Emax, NClH1299 cells with inducible p53 Y220C, 10 uM tool compound as positive control.
Where [12] appears, read: NClH1299-inducible p53 Y220C cells.
Where [13] appears, read: NClH1299-inducible p53 R273H cells.

Take `CN1CC[C@@H](Nc2cccn3c(SC(F)(F)F)c(C#CCNc4ccc(P(C)(C)=O)cn4)cc23)[C@@H](F)C1` [Example 428, 2-(3-{[5-(dimethylphosphoryl)pyridin-2-yl]amino}prop-1-yn-1-yl)-N-[(3S,4R)-3-fluoro-1-methylpiperidin-4-yl]-3-[(trifluoromethyl)sulfanyl]indolizin-8-amine]: in test [1], the Kd is below 10 nM. In addition, in test [2] (setting [6]), the concentration at half-maximal activity (AC50) is below 750 nM. In test [2] (setting [7]), this compound had a maximal effect (Emax) of 80 to 90%. Besides, the IC50 in test [3] (NUGC3 cells, CellTiter-Glo) was below 750 nM; in test [4] (setting [8]), below 750 nM; in test [5] (setting [9]) it was at least 10000 nM.
In the case of `CN1CC[C@@H](Nc2cccn3c(SC(F)(F)F)c(C#CCNc4ccc(S(C)(=O)=O)cc4)cc23)[C@@H](F)C1` [Example 418], in test [1], the Kd is below 10 nM. The AC50 in test [2] (setting [6]) was below 750 nM. The compound further yielded an Emax in test [2] (setting [7]) above 90%. Besides, the half-inhibitory concentration (IC50) is below 750 nM in test [3] (NUGC3 cells, CellTiter-Glo); below 750 nM in test [4] (setting [8]); at least 10000 nM in test [5] (setting [9]).
`CNC(=O)c1ccc(NCC#Cc2cc3c(N[C@@H]4CCN(C)C[C@@H]4F)cccn3c2SC(F)(F)F)c(C#N)c1` [Example 432, 3-cyano-4-{[3-(8-{[(3S,4R)-3-fluoro-1-methylpiperidin-4-yl]amino}-3-[(trifluoromethyl)sulfanyl]indolizin-2-yl)prop-2-yn-1-yl]amino}-N-methylbenzamide]: the Kd in test [1] is below 10 nM. In test [2] (setting [6]), the AC50 was below 750 nM. Besides, in test [2] (setting [7]), the maximal response (Emax) was above 90%. Moreover, the IC50 was below 750 nM in test [3] (NUGC3 cells, CellTiter-Glo); below 750 nM in test [4] (setting [8]); at least 10000 nM in test [5] (setting [9]).
For `CNC(=O)c1ccc(OC)c(NCC#Cc2cc3c(N[C@@H]4CNC[C@@H]4F)nccn3c2SC(F)(F)F)n1` [Example 210], in test [1] (kinetic KD), the Kd is below 10 nM. Further, the maximal response (Emax) in test [2] (luciferase reporter, NClH1299 inducible p53 Y220C, 10 uM tool compound as positive control) lay in the range of 80 to 90%. For the same compound, the half-maximal activity concentration (AC50) in test [2] (luciferase reporter, NClH1299 inducible p53 Y220C) fell in the range of 750 to 1500 nM. Besides, the half-maximal inhibitory concentration (IC50) in test [3] (CellTiter-Glo, NUGC3 p53 Y220C) is 750 to 1500 nM; in test [4] (CellTiter-Glo, H1299 p53 Y220C) it was 750 to 1500 nM; in test [5] (CellTiter-Glo, H1299 p53 R273H) it was at least 10000 nM.
In the case of `CNC(=O)c1ccc(NCC#Cc2cc3c(N[C@@H]4CCNC[C@@H]4F)cccn3c2SC(F)(F)F)c(O)c1` [Example 455, 4-{[3-(8-{[(3S,4R)-3-fluoropiperidin-4-yl]amino}-3-[(trifluoromethyl)sulfanyl]indolizin-2-yl)prop-2-yn-1-yl]amino}-3-hydroxy-N-methylbenzamide], the Kd in test [1] is below 10 nM. In test [2] (setting [10]), the AC50 was below 750 nM. In test [2] (setting [11]), this compound gave a maximum response (Emax) of 80 to 90%. Also, the IC50 is below 750 nM in test [3] (NUGC3 cells), below 750 nM in test [4] (setting [12]) and 5000 to 8000 nM in test [5] (setting [13]).
With `COc1ccc(C(=O)N[C@H]2C[C@@H](O)C2)cc1NCC#Cc1cc2c(N[C@@H]3CCN(C)C[C@@H]3F)cccn2c1SC(F)(F)F` [Example 471], the dissociation constant Kd in test [1] is below 10 nM. Also, the AC50 in test [2] (setting [10]) is below 750 nM. This compound also returned an Emax in test [2] (setting [11]) above 90%. Further, the IC50 in test [3] (NUGC3 cells) was below 750 nM; in test [4] (setting [12]) it was below 750 nM; in test [5] (setting [13]), at least 10000 nM.
Regarding `CNC(=O)c1ccc(OC)c(NCC#Cc2nc3c(N[C@@H]4CCN(C)C[C@@H]4F)cccn3c2SC(F)(F)F)c1F` [Example 320], the Kd in test [1] is 10 to 100 nM. In test [2] (setting [6]), the half-maximal activity concentration (AC50) is above 3000 nM. This compound also gave an Emax in test [2] (setting [7]) of 70 to 80%. In addition, the concentration for half-maximal inhibition (IC50) in test [3] (NUGC3 cells, CellTiter-Glo) is above 3000 nM; in test [4] (setting [8]) it was above 3000 nM; in test [5] (setting [9]), at least 10000 nM.
For `COc1ncc(C(N)=O)cc1NCC#Cc1nn2c(N[C@@H]3CCN(C)C[C@@H]3F)cccc2c1SC(F)(F)F` [Example 276], the Kd in test [1] was below 10 nM. For the same compound, the AC50 in test [2] (setting [6]) was below 750 nM. The compound also had an Emax in test [2] (setting [7]) of 80 to 90%. For the same compound, the IC50 is below 750 nM in test [3] (NUGC3 cells, CellTiter-Glo); below 750 nM in test [4] (setting [8]); below 5000 nM in test [5] (setting [9]).
